How the values were obtained:
human CGAS (157-522) = human CGAS (157-522) (Homo sapiens, UniProt Q8N884); assay: biochemical;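 also: biochemical enzyme reaction, 2′3′-cGAMP product measured by RapidFire mass spectrometry (MRM) normalised to c-di-UMP internal standard, inhibition of product formation relative to high and low control wells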
Experimental: Compounds were serially diluted 2, 3, or 4-fold in neat DMSO to generate 11-point dose response curves and then 250 nL compound or DMSO solution was transferred to Greiner 384-well V-bottom assay plates (Catalog #781280) using an Echo acoustic dispenser (Labcyte). A solution of 150 μM ATP, 150 μM GTP, 20 μM pppGpA (GTP-2′5′-AMP, custom synthesis from ChemGenes), and 10 μg/mL sheared salmon sperm DNA (Sigma, Catalog #D1626) in assay buffer (20 mM Trizma, pH 7.5, 10 mM magnesium chloride, 0.3 mM CHAPS, and 0.01% (w/v) bovine serum albumin) was added to columns 1-17, 19-24 of the plate at 12.5 μL/well using a Combi liquid handler (ThermoFisher). A 12.5 μL/well low control solution containing 150 μM ATP, 150 μM GTP, 20 μM pppGpA in assay buffer was added to column 18 using the Combi. A 12.5 μL/well solution of 10-100 nM human CGAS (157-522) in assay buffer was then added to all wells of the plate using the Combi. […] Reactions were quenched by added 50 μL/well of 0.5% (v/v) trifluoroacetic acid (TFA) in mass spectrometry grade deionized water containing 5 μM cyclic-di-UMP (ci-di-UMP; Invivogen Catalog #tlrl-cdu) as the internal standard (IS). Plates were centrifuged for 1 min and then quenched reactions were analyzed using a RF-MS 300 system operating in a Multiple Reaction Monitoring (MRM) detection mode.
Samples (10 μL injection volume) were passed over a silica C18/type C solid phase extraction (SPE) cartridge for analyte (2′3′-cyclic guanosine monophosphate adenosine monophosphate (2′3′-cGAMP), product of biochemical reaction)/pppGpA/c-di-UMP IS adsorption. Adsorbed samples were desalted for 3000 ms using a 100% water eluent A/desalting solution. Afterwards, desalted samples were eluted using a 0.5% TFA in 20%/80% acetonitrile/water eluent B/elution solution directly into either a Sciex 4000, 5000 or 5500 triple quadrupole mass spectrometer (QQQ-MS) for MRM analyte/IS detection. QQQ-MS detection conditions were as follow: scan type: MRM; curtain (CUR) gas: 30 psi; nebulizer (GS1) gas: 50 psi; drying (GS2) gas: 60 psi; collisionally activated dissociation (CAD) gas: 12 relative setting; precursor ion (Q1) masses: 2′3′-cGAMP: m/z 675.1 Da/pppGpA: m/z 853.0 Da/c-di-UMP: m/z 613.1 Da; fragment ion (Q3) masses: 2′3′-cGAMP: m/z 524.1 Da/pppGpA: m/z 702.0 Da/c-di-UMP: 307.1 Da; declustering potentials (DPs): 2′3′-cGAMP: +81 V/pppGpA: +85 V/c-di-UMP: +85 V; entrance potential: +10 V (all analytes); collision energies (CEs): 2′3′-cGAMP: +33 V/pppGpA: +36 V/c-di-UMP: +35 V; collision cell exit potential (CXP): +10 V (all analytes); interface heater (Sciex 4000/5000 only): on; Q1 resolution: unit (all analyte); Q3 resolution: unit (all analytes). The area under the curve (AUC) for all analytes was obtained using the RapidFire Integrator software application to calculate AUC-2′3′-cGAMP/AUC-c-di-UMP intensity ratio. Percent product formation was calculated by comparison to column 6 (high control)/column 18 (low control) responses. The % product inhibition was calculated as follows:
[formula] where A is the minimum response, B is the maximum response, C is the log10*XC50, D is the slope factor, and x is the log10 compound concentration [M] in ABASE XE.

CGAS = CGAS whole blood cytokine release assay (384-well, BacMam stimulation, IP-10 by cytometric bead array); type: cell-based; settings: Homo sapiens, 6 h; read-out: hWB pXC50 (converted)
Experimental: Blood collection: Blood was collected in a tube containing 10% Sodium Heparin (5 ml/45 ml blood final).
Protocol for CGAS Whole Blood Cytokine Release Assay: Compounds serial diluted at 1:3 were provided at 150 nL per well, in a 384 well polypropylene microplate (cat. 781280; Greiner Bio-One, Frickenhausen, Germany). 5 μL of PBS/20% Null BacMam was dispensed to all wells except for column 18 on a Multidrop Combi (Thermo Scientific, Waltham, MA). 5 uL of PBS was dispensed into column 18. The Bravo (Agilent, Santa Clara, CA) was used to transfer 45 uL of donor derived blood into the compound plates. The Bravo protocol mixed the blood and compound/PBS 5 times. The plates were incubated at 37° C., 5% CO2, for 6 hours. At the 6 hour mark the plates were removed and centrifuged for 10 minutes at 3000 RPM. 3 uL of supernatant was transferred from the plate to a 384 well NBS microplate (cat. 4513; Corning Life Sciences, Corning, NY). These plates were sealed with adhesive foil and stored in a −80 freezer until ready for analysis.
For cytokine detection, Human IP-10 BD cytometric bead array (CBA) beads (BD Biosciences, Franklin Lakes, NJ) were used. Capture bead solution was prepared by performing a 1:50 dilution of the IP-10 capture bead stock solution in BD diluent for serum/plasma (cat. 51-9003991 BD Biosciences, Franklin Lakes, NJ). 2 μL of this solution was added per well to the assay microplates which were then sealed with adhesive foil and incubated at room temperature for 2 h in the dark. Detection reagent was further prepared by performing a 1:50 dilution of the detection reagent stock solution. 2 μL of detection reagent was added per well and microplates were sealed with adhesive foil and incubated at room temperature in the dark for 1 h. After the 1 h incubation 3 uL of BD CBA wash buffer was added per well of the microplates. Data were acquired on an iQue Screener flow cytometer. The iQue used fluorescence detection to quantify the inhibition of IP-10 present in the sample wells. A sip time of 1 second per sample was used. The blue laser with excitation of 488 nm and emission filters 585/40 nm were used to capture the mean and median of IP-10 with the detector in logarithmic mode (FL2-H).
All data analysis was carried out in IDBS ActivityBase XE.

Chain of human CGAS (157-522) (Q8N884 157-522): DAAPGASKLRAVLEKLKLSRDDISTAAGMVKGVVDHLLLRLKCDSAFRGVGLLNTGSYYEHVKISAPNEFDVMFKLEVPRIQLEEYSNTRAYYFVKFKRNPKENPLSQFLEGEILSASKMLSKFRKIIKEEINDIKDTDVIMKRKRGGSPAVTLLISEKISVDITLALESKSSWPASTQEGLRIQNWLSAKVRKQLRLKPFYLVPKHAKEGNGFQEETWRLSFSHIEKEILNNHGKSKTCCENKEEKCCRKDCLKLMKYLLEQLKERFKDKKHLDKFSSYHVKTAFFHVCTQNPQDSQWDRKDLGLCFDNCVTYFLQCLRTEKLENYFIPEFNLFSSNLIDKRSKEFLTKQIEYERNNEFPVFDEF

| SMILES | IC50 (human CGAS (157-522)) [nM] | IC50 (CGAS) [nM] |
| --- | --- | --- |
| COCC(C)COCc1cnc2nc(-c3nc(C(F)(F)F)n[nH]3)c(-c3cnc[nH]3)n2c1 (stereo not drawn) [Example 127, 5-[3-(1H-imidazol-5-yl)-6-[(3-methoxy-2-methylpropoxy)methyl]imidazo[1,2-a]pyrimidin-2-yl]-3-(trifluoromethyl)-1H-1,2,4-triazole] | 7.94 | 251 |
| FC(F)(F)c1n[nH]c(-c2nc3ncc(COCCCC4CCCO4)cn3c2-c2cnc[nH]2)n1 (stereo not drawn) [Example 140, 5-[3-(1H-imidazol-5-yl)-6-{[3-(oxolan-2-yl)propoxy]methyl}imidazo[1,2-a]pyrimidin-2-yl]-3-(trifluoromethyl)-1H-1,2,4-triazole] | 12.6 | 794 |
| CN1CCc2nc3nc(-c4nc(C(F)(F)F)n[nH]4)c(-c4cnc[nH]4)n3cc2C1 [Example 73, 6-(1H-imidazol-5-yl)-11-methyl-5-[3-(trifluoromethyl)-1H-1,2,4-triazol-5-yl]-2,4,7,11-tetraazatricyclo[7.4.0.0^3,^7]trideca-1,3,5,8-tetraene] | 6.31 | 794 |
| FC(F)(F)c1n[nH]c(-c2nc3ncc(COCC4CC45CCOC5)cn3c2-c2c[nH]cn2)n1 (stereo not drawn) [Example 155, 5-[3-(1H-imidazol-4-yl)-6-[{{5-oxaspiro[2.4]heptan-1-yl}methoxy)methyl]imidazo[1,2-a]pyrimidin-2-yl]-3-(trifluoromethyl)-1H-1,2,4-triazole] | 7.94 | 501 |
| COCc1cn2c(-c3cnc[nH]3)c(-c3nc(C(F)F)n[nH]3)nc2nc1C(F)(F)F [Example 121, 3-(difluoromethyl)-5-[3-(1H-imidazol-5-yl)-6-(methoxymethyl)-7-(trifluoromethyl)imidazo[1,2-a]pyrimidin-2-yl]-1H-1,2,4-triazole] | 7.94 | 1580 |
| CC(=O)N1Cc2cn3c(-c4cnc[nH]4)c(-c4nc(C(F)(F)F)n[nH]4)nc3nc2C1 [Example 68, 1-[12-(1H-imidazol-5-yl)-11-[3-(trifluoromethyl)-1H-1,2,4-triazol-5-yl]-1,5,8,10-tetraazatricyclo[7.3.0.0^3,^7]dodeca-2,7,9,11-tetraen-5-yl]ethan-1-one] | 5.01 | 1260 |
| FC(F)(F)c1n[nH]c(-c2nc3ncc(Br)cn3c2-c2cnc[nH]2)n1 [Example 77, 5-[6-bromo-3-(1H-imidazol-5-yl)imidazo[1,2-a]pyrimidin-2-yl]-3-(trifluoromethyl)-1H-1,2,4-triazole] | 2 | 398 |
| N#Cc1cnc2nc(-c3nc(C(F)(F)F)n[nH]3)c(-c3cnc[nH]3)n2c1 [Example 110, 3-(1H-imidazol-5-yl)-2-[3-(trifluoromethyl)-1H-1,2,4-triazol-5-yl]imidazo[1,2-a]pyrimidine-6-carbonitrile] | 50.1 | 398 |
| CC(=O)N1CCC(COCc2cnc3nc(-c4nc(C(F)(F)F)n[nH]4)c(-c4c[nH]cn4)n3c2)C1 (stereo not drawn) [Example 149, 1-[3-({[3-(1H-imidazol-4-yl)-2-[3-(trifluoromethyl)-1H-1,2,4-triazol-5-yl]imidazo[1,2-a]pyrimidin-6-yl]methoxy}methyl)pyrrolidin-1-yl]ethan-1-one] | 10 | 10000 |
| FC(F)(F)c1n[nH]c(-c2nc3nc4c(cn3c2-c2cnc[nH]2)CNCC4(F)F)n1 [Example 83, 13,13-difluoro-6-(1H-imidazol-5-yl)-5-[3-(trifluoromethyl)-1H-1,2,4-triazol-5-yl]-2,4,7,11-tetraazatricyclo[7.4.0.0^3,^7]trideca-1,3,5,8-tetraene] | 7.94 | 316 |
| COCC(F)(F)c1ccn2c(-c3cnc[nH]3)c(-c3nc(C(F)(F)F)n[nH]3)nc2n1 [Example 19, 5-[7-(1,1-difluoro-2-methoxyethyl)-3-(1H-imidazol-5-yl)imidazo[1,2-a]pyrimidin-2-yl]-3-(trifluoromethyl)-1H-1,2,4-triazole] | 6.31 | 398 |
| CC(NCc1ccn2c(-c3c[nH]cn3)c(-c3nc(C(F)(F)F)n[nH]3)nc2n1)C(F)(F)F (stereo not drawn) [Example 118, {[3-(1H-imidazol-4-yl)-2-[3-(trifluoromethyl)-1H-1,2,4-triazol-5-yl]imidazo[1,2-a]pyrimidin-7-yl]methyl}(1,1,1-trifluoropropan-2-yl)amine] | 12.6 | 631 |
| CC(C)(C)C(=O)n1cnc(-c2c(-c3nc(C(F)(F)F)n[nH]3)nc3ncccn23)c1 [Example 81, 2,2-dimethyl-1-(4-{2-[3-(trifluoromethyl)-1H-1,2,4-triazol-5-yl]imidazo[1,2-a]pyrimidin-3-yl}-1H-imidazol-1-yl)propan-1-one] | 3.98 | 158 |
| FC(F)(F)c1n[nH]c(-c2nc3ncc(COCC4CCOC4)cn3c2-c2cnc[nH]2)n1 (stereo not drawn) [Example 126, 5-[3-(1H-imidazol-5-yl)-6-{[(oxolan-3-yl)methoxy]methyl}imidazo[1,2-a]pyrimidin-2-yl]-3-(trifluoromethyl)-1H-1,2,4-triazole] | 7.94 | 501 |
| OCC(F)(F)c1ccn2c(-c3cnc[nH]3)c(-c3nc(C(F)(F)F)n[nH]3)nc2n1 [Example 6, 2,2-difluoro-2-[3-(1H-imidazol-5-yl)-2-[3-(trifluoromethyl)-1H-1,2,4-triazol-5-yl]imidazo[1,2-a]pyrimidin-7-yl]ethan-1-ol] | 3.98 | 501 |
| FC(F)c1ccn2c(-c3cnc[nH]3)c(-c3nc(C(F)(F)F)n[nH]3)nc2n1 [Example 95, 5-[7-(difluoromethyl)-3-(1H-imidazol-5-yl)imidazo[1,2-a]pyrimidin-2-yl]-3-(trifluoromethyl)-1H-1,2,4-triazole] | 10 | 398 |
| FC(F)(F)c1n[nH]c(-c2nc3nc4c(cn3c2-c2cn[nH]c2)COCC4)n1 [Example 72, 6-(1H-pyrazol-4-yl)-5-[3-(trifluoromethyl)-1H-1,2,4-triazol-5-yl]-11-oxa-2,4,7-triazatricyclo[7.4.0.0^3,^7]trideca-1,3,5,8-tetraene] | 12.6 | 15800 |
| FC(F)(F)c1n[nH]c(-c2nc3ncc(CN4CCOCC4)cn3c2-c2c[nH]cn2)n1 [Example 70, 4-{[3-(1H-imidazol-4-yl)-2-[3-(trifluoromethyl)-1H-1,2,4-triazol-5-yl]imidazo[1,2-a]pyrimidin-6-yl]methyl}morpholine] | 3.16 | 2000 |
| Fc1cn2c(-c3cnc[nH]3)c(-c3nc(C(F)(F)F)n[nH]3)nc2nc1C(F)(F)F [Example 125, 5-[6-fluoro-3-(1H-imidazol-5-yl)-7-(trifluoromethyl)imidazo[1,2-a]pyrimidin-2-yl]-3-(trifluoromethyl)-1H-1,2,4-triazole] | 15.8 | 3160 |
| COCc1cnc2nc(-c3nc(C(F)(F)F)n[nH]3)c(-c3cnc[nH]3)n2c1 [Example 69, 5-[3-(1H-imidazol-5-yl)-6-(methoxymethyl)imidazo[1,2-a]pyrimidin-2-yl]-3-(trifluoromethyl)-1H-1,2,4-triazole] | 2.51 | 126 |
| CC(=O)N1Cc2cn3c(-c4cnc[nH]4)c(-c4nc(C(F)(F)F)n[nH]4)nc3nc2C(F)(F)C1 [Example 87, 1-[13,13-difluoro-6-(1H-imidazol-5-yl)-5-[3-(trifluoromethyl)-1H-1,2,4-triazol-5-yl]-2,4,7,11-tetraazatricyclo[7.4.0.0^3,^7]trideca-1,3,5,8-tetraen-11-yl]ethan-1-one] | 2000 | > 31600 |
| FC(F)(F)c1n[nH]c(-c2nc3nc4c(cn3c2-c2cnc[nH]2)CCC4)n1 [Example 133, 12-(1H-imidazol-5-yl)-11-[3-(trifluoromethyl)-1H-1,2,4-triazol-5-yl]-1,8,10-triazatricyclo[7.3.0.0^3,^7]dodeca-2,7,9,11-tetraene] | 3.16 | 200 |
| FC(F)(F)c1ccn2c(-c3cnc[nH]3)c(-c3nc(C(F)(F)F)n[nH]3)nc2n1 [Example 3, 5-[3-(1H-imidazol-5-yl)-7-(trifluoromethyl)imidazo[1,2-a]pyrimidin-2-yl]-3-(trifluoromethyl)-1H-1,2,4-triazole] | 6.31 | 794 |
| FC(F)(F)c1n[nH]c(-c2nc3nc4c(cn3c2-c2cnc[nH]2)CNC4)n1 [Example 63, 12-(1H-imidazol-5-yl)-11-[3-(trifluoromethyl)-1H-1,2,4-triazol-5-yl]-1,5,8,10-tetraazatricyclo[7.3.0.0^3,^7]dodeca-2,7,9,11-tetraene] | 6.31 | 794 |
